Data on one compound can be found in patent publication US11129867B2, “Method of treating cancer cells” (priority 2017, dated 2021).

Data set [1] deals with Ca922 cells. The experiment in a line: WST-8 cell viability assay, Ca922. It counts as cell-based, human. Conditions: for cytotoxicity (cell viability): 48 hours. The procedure: (§1) Human oral squamous cell carcinoma (OSCC) cell lines, Ca922, OSC20, OECM-1, OC3, CGHNC9, HSC3, plus A549, MDA-MB-231, MCF7, Huh7, HeLa-Kyoto, Detroit 562, H520, H2170, and 293T cells were used in this study. Ca922, CGHNC9, MDA-MB-231, MCF7, Huh7, HeLa-Kyoto, Detroit 562, and 293T cells were all cultured in high-glucose Dulbecco's Modified Eagle Medium (DMEM). OSC20 and HSC3 cells were cultured in Dulbecco's Modified of Eagle's Medium/Ham's F-12 50/50 Mix (1:1). OECM-1, A549, H520, and H2170 cells were grown in RPMI-1640 medium. All culture media were supplemented with 10% fetal bovine serum (FBS) and 1% penicillin-streptomycin. OC3 cells were cultured in 1:1 DMEM/KSFM (keratinocyte serum-free medium) with supplied supplement of Bovine pituitary extract (BPE) and epidermal growth factor (EGF) followed by instruction. All the cells in this study were maintained at 37° C. in humidified atmosphere containing 5% CO2.
(§2) WST-8 [2-(2-methoxy-4-nitrophenyl)-3-(4-nitrophenyl)-5-(2,4-disulfophenyl)-2H-tetrazolium, monosodium salt] cell viability assay
(§3) Cells were seeded into 96 well plate and incubated at 37° C. overnight. Endpoint measures of TMR-GBP or drugs were performed by water soluble tetrazolium salt (WST-8)-based colorimetric assay in triplicate which measures the metabolic conversion of WST-8 into formazan by mitochondrial dehydrogenases present in viable cells. The amount of formazan produced is proportional to the number of live cells and is expressed as cellular viability. When time was up, media were removed and supplemented with WST-8 cell viability reagent-contained cell culture medium (1:10) and incubated at 37° C. for 2 hours. Besides, three wells with WST-8-dissolved medium only (without cells) were reserved as a background control. Cell viability was measured at the absorbance of 450/655 nm wavelength by ELISA reader.

Data set [2] has as its system MDA-MB-231. The experiment in a line: WST-8 cell viability assay, MDA-MB-231. It counts as cell-based. The note with it: MDA-MB-231 (breast cancer), different concentrations, 48 hours, FIG. 3. The procedure: as §1, §2
(§4) Cells were seeded into 96 well plate and incubated at 37° C. overnight. […] The amount of formazan produced is proportional to the number of live cells and is expressed as cellular viability. […] Cell viability was measured at the absorbance of 450/655 nm wavelength by ELISA reader.

For data set [3], the system named is MCF7. The experiment in a line: WST-8 cell viability assay, MCF7. Conditions: MCF7 (breast cancer), different concentrations, 48 hours, FIG. 3. It is filed as cell-based. The procedure: as §1, §2, §4
The subject of data set [4] is 293T. Put plainly: WST-8 cell viability assay, 293T. It counts as cell-based. The note with it: 293T (embryonic kidney), different concentrations, 48 hours, FIG. 3. The procedure: as §1, §2, §4
Data set [5] relates to A549. Put plainly: WST-8 cell viability assay, A549. It counts as cell-based. The note with it: A549 (lung cancer), different concentrations, 48 hours, FIG. 3. The procedure:
as §1, §2, §4

Data set [6] relates to Detroit 562. The experiment in a line: WST-8 cell viability assay, Detroit 562. It is filed as cell-based. The note with it: Detroit 562 (pharynx cancer), different concentrations, 48 hours, FIG. 5. As for the experimental part:
as §1, §2, §3

The subject of data set [7] is H520. The experiment in a line: WST-8 cell viability assay, H520. It counts as cell-based. Conditions: H520 (lung cancer), different concentrations, 48 hours, FIG. 5. The procedure: as §1, §2, §3
The test system of data set [8] is A549. Put plainly: Time-lapse live cell imaging, A549. It counts as cell-based. Conditions: A549, unbound TMR-GBP removed, imaged at 15 minutes interval for 16 hours, FIG. 4. As for the experimental part:
Time-Lapse Live Cell Imaging
In order to monitor cell morphology and the stability of TMR-GBP, cells were incubated in 35 mm dish or 4 well dish at 37° C. overnight. Replaced the culture medium with CO2-independent medium with supplement of 10% fetal bovine serum (FBS) and 1% penicillin-streptomycin, cells were treated with reagent (TMR, GBP, TMR-GBP) for the time according to the experiment and subjected to time-lapse live cell imaging. Cells were maintained on the microscope stage incubator at 37° C. Multiple-positional time-lapse imaging was performed using an automated Leica DMI6000 inverted microscope equipped with an HCX PL FL 20λ/NA0.4 objective and Andor Luca R EMCCD camera. Images of cells were taken at different interval time and analyzed by MetaMorph software.

Data set [9] deals with Ca922 cells. Put plainly: Annexin V staining with flow cytometry. Conditions: Ca922, 12.5 μM TMR-GBP, FIG. 6B. It counts as cell-based, human. As for the experimental part:
[…] Diluted 10× Binding Buffer to 1× using distilled water. Washed cells once in PBS, then once in 1× Binding Buffer. Resuspended cells in 1× Binding Buffer at 1-5×10^6/mL. Next, added 5 μL of fluorochrome-conjugated Annexin V to 100 μL of the cell suspension. Sample was incubated 10-15 minutes at room temperature. Afterwards, washed cells in 1× Binding Buffer and resuspend in 200 μL of 1× Binding Buffer. Analyzed by flow cytometry within 4 hours, storing at 2-8° C. in the dark.

The test system of data set [10] is Caspase-7. The experiment in a line: Western blotting of Caspase-7. It is filed as cell-based, human. The note with it: Ca922, 25 μM, FIG. 11B. The procedure:
(§5) Protein lysate of Ca922 cells treated with TMR-GBP 25 μM were blotted with antibodies against Caspase-3, Caspase-7, Caspase-9 and Poly (ADP-ribose) polymerase (PARP). Representative blots are shown.
(§6) Western Blotting Analysis
(§7) Cells were harvested by trypsion or scratch and lysed in RIPA buffer (50 mM Tris-HCl, pH 7.4, 150 mM NaCl, 0.1% SDS, 0.5% Sodium deoxycholate, 1% NP-40) supplemented with 1× protease inhibitor cocktail. Sample was incubated on ice for 30 minutes and scraped every 10 minutes. Centrifuge at 13,000 rpm at 4° C. for 15 minutes, then collect supernatant for analysis. Protein concentration was determined by Bradford assay. First, 5× Bradford assay dye reagent was diluted into […], and mixture with RIPA (as standard) or samples. Concentration was obtained by spectrophotometer measurement. Equal volume of 2× laemmli buffer containing β-ME was added into protein lysate for goal concentration. Protein samples were boiled at 100° C. for 15 minutes and resolved by 10% SDS-PAGE gel or 4%-15% gradient gel. Then, transfer to PVDF membrane by 100V or 110V voltage for 1 hour. […] Washing the membrane three times with 1×PBST for every 5 minutes, protein band was detected by modified ECL (ddH2O, […] Tris pH8.0, 200 μM p-coumaric acid, 1.25 mM luminal, 0.001% H2O2) with ImageQuant LAS 4000 digital imaging system.

Data set [11] has as its system Caspase-9. The experiment in a line: Western blotting of Caspase-9. It counts as cell-based, human. Conditions: Ca922, 25 μM, FIG. 11B. The procedure: as §5, §6, §7

Where a SMILES comes first, the peptide text is derived from it. The star is where a group is joined. X1 = CN(C)c1ccc2c(-c3ccc(C(=O)*)cc3C(=O)[O-])c3ccc(=[N+](C)C)cc-3oc2c1

For the compound `CN(C)c1ccc2c(-c3ccc(C(=O)N[C@@H](CC(N)=O)C(=O)N[C@@H](Cc4ccc(O)cc4)C(=O)N[C@@H](CCCNC(=N)N)C(=O)N[C@@H](Cc4c[nH]c5ccccc45)C(=O)N[C@@H](CCCNC(=N)N)C(=O)N[C@@H](CS)C(=O)N[C@@H](CCCCN)C(=O)N[C@@H](CC(N)=O)C(=O)N[C@@H](CCC(N)=O)C(=O)N[C@@H](CC(N)=O)C(=O)O)cc3C(=O)[O-])c3ccc(=[N+](C)C)cc-3oc2c1` [TMR-GBP] (X1-NYRWRCKNQN-OH; N-terminus and C-terminus assumed), the “cytotoxicity (cell viability)” value in [1] (Ca922 (oral cancer), different concentrations, FIG. 5) was “could induce cytotoxicity”; in data set [1] (Ca922 cells, 50 μM, FIG. 1), “could induce cytotoxicity”; in data set [6] it was “could induce cytotoxicity”; in data set [7] it was “could induce cytotoxicity”. The “TMR-GBP induced cytotoxicity after NAC pretreatment” value in data set [1] (Ca922, NAC pretreated 2 hours, then TMR-GBP 0, 12.5, 25 or 50 μM for 48 hours, FIG. 8B) is reported as “partially suppressed by NAC”. In addition, in [1] (Ca922, calcium chelators BAPTA-AM, EGTA pretreated 2 hours, then TMR-GBP 48 hours, FIG. 8B), the “TMR-GBP induced cytotoxicity, dependence on calcium” value is given as “independent of calcium release”. Moreover, the cell viability entry in data set [2], in data set [3], in data set [4] and in data set [5] was “not markedly affected” in each case. In addition, the “cell death by time-lapse microscopy” value in [8] was “still alive after long-term TMR-GBP treatment”. For the same compound, in data set [9], the “apoptosis by Annexin-V-FITC labeling” value was “positively labeled by Annexin-V-FITC”. For the same compound, the “activation of caspase-7” value in [10] was “did not activate”. Also, the “activation of caspase-9” value in data set [11] was “did not activate”.
